{
  "source": "patent US7981939B2",
  "about": "“Application of 2-bromide-isovanillin for the manufacture of a medicament for anti-cancer or/and radiation/chemotherapy sensitization” (Institute of Radiation Medicine, Academy of Military …, priority 2005, dated 2011)",
  "key": {"[1]": {"system": "c-myc protein", "assay": "c-myc protein expression by Western immunoblotting, HeLa", "type": "cell-based, human", "conditions": "40 μmol/L, 0-24 hrs, decrease more remarkable with time", "description": "The expression level of c-myc protein in human cervical cancer cell line HeLa treated with 2-bromo-isovanillin was determined by Western immunoblotting. In the Western blotting, the mouse anti-human c-myc protein monoclonal antibody SC-40 (purchased from Santa Cruz) was used as the primary antibody, and the goat anti-mouse antibody IgG-HRP (purchased from Zhongshan Reagent Co.) was used as the secondary antibody. Total proteins from human cervical cancer cells HeLa treated with 40 μmol/L 2-bromo-isovanillin for 0, 4, 8, 12, 24 hrs were extracted according to conventional methods, quantified and subjected to SDS-PAGE electrophoresis, followed by transferring to a membrane and immunoblotting, using β-actin as control."}, "[2]": {"system": "human cervical cancer cell line HeLa", "assay": "MTT assay, proliferation of HeLa cells", "type": "cell-based", "description": "(§1) Human cervical cancer cell line HeLa, human liver cancer cell line HepG2/7221/7402, human ovarian cancer cell line HOC8/A2780, human glioma cell line BT325, lung cancer cell line A549, brain metastatic lung cancer cell line BT72 and normal human hepatic cell line LO2 were all grown in DMEM liquid medium supplemented with 10% newborn calf serum. Human leukemia cell line Jurkat was grown in 1640 medium supplemented with 10% newborn calf serum. The above cell lines were cultured in a CO2 incubator at 5% CO2 at 37° C.\nBy way of example, human cervical cancer cell line HeLa was used to study the effect of vanillin on the proliferation of cancer cells by MTT assay. Specifically, human cervical cancer cells HeLa were seeded into a 96-well plate at a density of 5×10^3 cells/well, and were divided into four groups. To each of the groups vanillin was added at a concentration of 0, 100, 250 or 500 μmol/L, respectively, and was allowed to grow for 4 days. Using the MTT assay, the optical density (OD) values at 490 nm were measured and recorded every day, wherein the OD value is indicative of the number of cells, i.e., the proliferation of cells.\nBy way of example, human cervical cancer cell line HeLa was used to study the effect of several vanillin derivatives for 72 hrs on the proliferation of cancer cells by MTT assay. Specifically, human cervical cancer cells HeLa were seeded into a 96-well plate at a density of 5×10^3 cells/well, and were divided into four groups. To each of the groups were added increasing concentrations (0, 10, 20, 30, 40 μmol/L) of vanillin derivatives ethyl vanillin (Code No. VAND3206), 4-methoxy vanillin (Code No. VAND3207), isovanillin (Code No. VAND3209) and 2-bromo-isovanillin (Code No. VAND3208), and the cells were cultured for 72 hrs. Using the MTT assay, the optical density (OD) values at 490 nm were measured and recorded every day, wherein the OD value is indicative of the number of cells, i.e., the proliferation of cells.\nBy way of example, human cervical cancer cell line HeLa was used to study the inhibitory effect of 2-bromo-isovanillin at different concentrations for different periods of time on the proliferation of cancer cells by MTT assay. Specifically, human cervical cancer cells HeLa were seeded into a 96-well plate at a density of 5×10^3 cells/well, and were divided into […]. To each of the groups 2-bromo-isovanillin was added at a concentration of 0, 10, 20, 30, 40 or 50 μmol/L, and was cultured for 14 days, respectively. Using the MTT assay, the optical density (OD) values at 490 nm were measured and recorded every day, wherein the OD value is indicative of the number of cells, i.e., the proliferation of cells."}, "[3]": {"system": "human cervical cancer cell line HeLa", "assay": "Clonogenic assay, 6 days of continuous action, HeLa", "type": "cell-based", "description": "as §1\nBy way of example, human cervical cancer cell line HeLa, lung cancer cell line A549, and ovarian cancer cell lines A2780 and HOC8 were used to determine the killing of cancer cells by 2-bromo-isovanillin for 6 days. Specifically, four groups were formed according to the type of the cancer cells. The cancer cells were diluted as appropriate, and were respectively plated into Petri dishes with a diameter of […], the amount of the cells adjusted depending on the concentration of 2-bromo-isovanillin to be added. Once adherence was achieved, each cell type received dosages of 0, 5, 10, 15, 20, 25, 30 and 35 μmol/L in triplicates. After 6 days of continuous action, the medium was replaced by a drug-free DMEM liquid medium. […] Then the cell clones were counted. The experimental data were expressed as the mean of 2-4 experiments and were plotted as a growth curve of cancer cells."}, "[4]": {"system": "leukemia cell line Jurkat", "assay": "Apoptosis in Jurkat cells (Hoechst 33258/FDA staining, DNA gel electrophoresis, flow cytometry)", "type": "cell-based, human", "description": "as §1\n3. Using the same procedure as described under items 1 and 2, the leukemia cells Jurkat were diluted, and plated into Petri dishes with a diameter of […], the amount of the cells adjusted depending on the concentration of 2-bromo-isovanillin to be added. Once adherence was achieved, the cells received dosages of 0, 10, 20, 30 and 40 μmol/L in triplicates. After 24 hrs of continuous action, the medium was replaced by a drug-free 1640 medium supplemented with 10% newborn calf serum. The cells were cultured for a total of 2 weeks. At the end of the culturing period, the cells were subjected to Hoechst 33258 and FDA double fluorescence staining and the results were plotted as an apoptosis curve, as shown in FIG. 4A."}},
  "data": [
    {"molecule": "COc1ccc(C=O)c(Br)c1O", "note": "[2-bromo-isovanillin, 2-bromo-3-hydroxy-4-methoxybenzaldehyde]", "values": [
      {"measurement": "expression level of c-myc protein", "setting": "[1]", "value": "decreased"},
      {"measurement": "effect on the proliferation of HeLa cells", "setting": "[2]; 20 μmol/L", "value": "remarkable inhibitory effect"},
      {"measurement": "effect on the proliferation of HeLa cells", "setting": "[2]; 30 μmol/L or above for 4 days", "value": "completely lost their proliferative capabilities"},
      {"measurement": "effect on the proliferation of HeLa cells", "setting": "[2]; concentrations of less than 40 μmol/L, up to 72 hrs", "value": "significant inhibition"},
      {"measurement": "survival rate", "setting": "[3]; 20 μmol/L", "value": "lower than 10%"},
      {"measurement": "proliferation", "setting": "[3]; 30 μmol/L", "value": "completely inhibited"},
      {"measurement": "apoptosis in Jurkat (flow cytometry)", "setting": "[4]; 0, 20, 30 μmol/L, 24 hrs", "value": "significantly induced apoptosis"},
      {"measurement": "DNA gel electrophoresis finding", "setting": "[4]; Jurkat, 20, 30, 40 μmol/L, 2% agarose gel", "value": "DNA fragmentation bands characteristic of apoptosis"},
      {"measurement": "dose inducing necrosis or M phase catastrophic death", "setting": "[4]; Jurkat, 24 hrs, Hoechst 33258 and FDA double fluorescence staining", "value": "≥ 40", "unit": "µmol/L"}
    ]}
  ]
}
